Source: US11691962B2 (eXIthera Pharmaceuticals, Inc., priority 2018, dated 2023)
pIC50: −log10 of the molar value.

How the values were obtained:
[1] = biological target: Factor XIa (Homo sapiens (Human), UniProt P03951); test: Factor XIa enzyme inhibition assay (dose response, fluorogenic AMC substrate); assay type: biochemical; details: read-out: hFXIa IC50
How it was run: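 Human FXIa at 0.25 nM final with 50 μM final PyroGlu-Pro-Arg-AMC in 20 mM Hepes pH 7.4, 150 mM NaCl, 0.02% Tween 20. Two-fold serial compound dilutions; fluorescence read every minute for 30 min at 30° C. IC50 from a four-parameter Hill fit.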

[2] = biological target: Thrombin (Homo sapiens (Human), UniProt P00734); test: Dose response assay for protease inhibitors: thrombin; assay type: biochemical; details: selectivity, thrombin over Factor XIa
How it was run: (§1)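 Fluorogenic AMC-peptide cleavage in 20 mM Hepes pH 7.4, 150 mM NaCl, 0.02% Tween 20; 100 μM stock substrate dilution (Glp-Pro-Arg-AMC for thrombin/trypsin; Pro-Phe-Arg-AMC or Boc-Leu-Gly-Arg-AMC for Factor Xa). Enzyme diluted to 0.5 nM, added last to two-fold compound series; kinetic read at 30° C, 30 min (Factor Xa 60 min); IC50 fitted.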

[3] = tested on: Trypsin; test: Dose response assay for protease inhibitors: trypsin; assay type: biochemical; details: selectivity, trypsin over Factor XIa
How it was run: as §1

[4] = biological target: Factor Xa (Homo sapiens (Human), UniProt P00742); test: Dose response assay for protease inhibitors: Factor Xa; assay type: biochemical; details: selectivity, Factor Xa over Factor XIa
How it was run: as §1

[5] = Metabolic stability in dog hepatocytes; assay type: in vitro ADME; details: pooled cryopreserved hepatocytes; beagle dog hepatocytes, 2 μM compound; read-out: Dog Hepatocyte Stability (t1/2)
Description: The following procedure was used to determine the stability of test compounds in beagle dog hepatocytes in a 96-well plate format. The test compounds, including the controls, imipramine and 7-ethoxycoumarin, were dissolved at 10 mM in DMSO, followed by further 5-fold dilution with DMSO to 2 mM. Pooled cryopreserved beagle dog hepatocytes were thawed and transferred into complete medium. Cells were gently centrifuged (700 rpm for 5 min) and the pellet rinsed with KHB (Krebs Henseleit buffer). Cells were resuspended, counted using Trypan blue, and adjusted to 1 million cells/mL in KHB buffer. The 2 mM compound stock solutions were diluted 10-fold with acetonitrile, followed by a further 50-fold dilution with KHB buffer. 200 μL of these compound solutions were transferred to 96-well polypropylene assay plates and an equal volume of the hepatocyte solution was added and mixed to initiate the reaction (final assay concentrations were 2 μM compound and 500,000 cells/mL). Assay plates were incubated at 37° C. in 5% CO2 with gentle agitation. 50 μL aliquots were removed at multiple time points out to 180 minutes and quenched with 6 volumes of cold acetonitrile (containing 250 ng/mL of carbutamide and chrysin as internal standards) to terminate the reaction and precipitate protein. Quenched samples were maintained on ice. The quenched samples were centrifuged at 2000×g (3100 rpm) for 10 minutes at 4° C. 50 μL aliquots of the supernatants were removed and diluted with 100 μL Milli-Q water to reduce the % organic content prior to bioanalysis by LC-MS/MS. Peak areas corresponding to the test compound were recorded. The compound remaining was calculated by comparing the peak area at each time point to time zero. Data were analyzed and results were calculated using Microsoft Excel 2010.

[6] = Caco-2 cell permeability assay; assay type: in vitro ADME, human; details: human, 37° C.
Description: (§2) The following procedure was used to determine the ability of a test compound to cross Caco-2 cells (human intestinal epithelial cells derived from a colorectal adenocarcinoma). The cells were seeded at 1×10^5 cells/cm^2 in 96-well Multiscreen™ plates (Millipore). Permeability assays were performed with the cells at days 21-25 post-seeding. Cells are typically used for 15 consecutive passages in culture.
(§3) This assay can be performed in either the apical to basolateral (A-B) or basolateral to apical (B-A) direction. The test compound was prepared at 10 μM in HBSS-MES (pH 6.5) or HBSS-HEPES (pH 7.4) with a final DMSO concentration of 1%. The working solution was then centrifuged and the supernatant added to the donor side. The assay plate was incubated at 37° C. with gentle shaking for 60 min or 40 min for the A-B or B-A assay, respectively. Samples were aliquoted from the donor side at time zero and the end point, and from the receiver side at the end point.
(§4) Reference compounds, propranolol (highly permeable), labetalol (moderately permeable), ranitidine (poorly permeable), and colchicine (P-glycoprotein substrate) were included in each assay.
(§5) Samples are analyzed by HPLC-MS/MS using selected reaction monitoring. The HPLC system consists of a binary LC pump with autosampler, a C-18 column, and a gradient.
(§6) The apparent permeability coefficient (Papp) of the test compound (Equation 2) and its recovery (Equation 3) are calculated as follows:
(§7) [formula] wherein A is the surface area of the cell monolayer (0.11 cm^2), C is concentration of the test compound expressed as peak area, D denotes donor, and R is receiver. “0”, “mid,” and “end” denote time at zero, mid-point, and end of the incubation, respectively. Δt is the incubation time. V is the volume of the donor or receiver.
(§8) This is most likely due to non-specific binding or degradation.

[7] = Aqueous solubility in PBS by HPLC-UV/VIS; assay type: physicochemical; details: PBS pH 7.4, 2% DMSO, 24 h at room temperature
Description: The following procedure was used to determine the aqueous solubility of a test compound in phosphate buffered saline (PBS-NaCl 137 mM, KCl 2.7 mM, Na2HPO4 8.1 mM, KH2PO4 1.5 mM, pH 7.4) in 96-well plate format by HPLC-UV/VIS analysis. The test compound was prepared at 200 μM in PBS from a 10 mM DMSO stock solution. The final DMSO concentration was 2%. The PBS buffer samples were mixed thoroughly followed by incubation at room temperature for 24 h. At the end of the incubation, the PBS buffer samples were centrifuged and supernatants analyzed by HPLC. The aqueous solubility (μM) of the test compound in PBS was determined by comparing the peak area of the principal peak in the calibration standard (200 μM) with the peak area of the corresponding peak in each of the PBS samples. The range of the assay was approximately 0.5 μM to 200 μM. The reference compounds used in each assay were metoprolol, rifampicin, ketoconazole, phenytoin, haloperidol, simvastatin, diethylstilbestrol, and tamoxifen ranking from fully soluble (200 μM) to poorly soluble (<1 μM).

[8] = Plasma protein binding by equilibrium dialysis; assay type: in vitro ADME; details: both sexes, pH 7.4, pooled human plasma, 4 hours at 37° C., read-out: PPB (%)
Description: (§9) The following procedure was used to determine the plasma protein binding of a test compound in pooled plasma from human (mixed gender) via equilibrium dialysis in a 96-well plate format. The dialysate compartment was loaded with phosphate-buffered saline (pH 7.4) and the sample side was loaded with plasma spiked with the test compound at a concentration of 10 μM. After loading, samples were covered and incubated for 4 hours at 37° C. After incubation, each compartment was sampled, diluted with acetonitrile/buffer and centrifuged. The supernatants were analyzed by HPLC-MS/MS. The analyte peak areas obtained from HPLC-MS/MS analysis of each sample were used to calculate protein binding according to the following equation (Equation 4):
(§10) [formula] where: AREAp=Peak area of analyte in protein matrix; AREAb=Peak area of analyte in buffer.
(§11) The amount measured in the plasma compartment included both free and bound drug, while that on the buffer side represented free drug only; the differences were used to calculate the percentage plasma protein bound. Three reference compounds were tested in each assay: acebutolol, quinidine and warfarin.

[9] = tested on: Caco-2 cells; test: Caco-2 cell permeability assay; assay type: in vitro ADME, human; details: Papp, 10 μM, 37° C.
Description: as §2, §3, §4, §5, §6, §7, §8

[10] = tested on: human plasma protein; test: Plasma protein binding by equilibrium dialysis; assay type: in vitro ADME; details: pooled human plasma, 10 μM, 4 hours at 37° C.
Description: as §9, §10, §11

Chain of Factor Xa (P00742 235-488): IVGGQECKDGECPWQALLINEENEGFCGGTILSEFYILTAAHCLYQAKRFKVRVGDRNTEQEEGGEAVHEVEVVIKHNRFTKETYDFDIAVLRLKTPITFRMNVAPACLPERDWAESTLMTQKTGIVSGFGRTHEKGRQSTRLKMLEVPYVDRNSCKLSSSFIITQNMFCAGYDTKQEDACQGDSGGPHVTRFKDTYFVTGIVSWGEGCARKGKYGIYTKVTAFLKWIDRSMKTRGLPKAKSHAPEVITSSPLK
Chain of Factor Xa (P00742 41-179 partner): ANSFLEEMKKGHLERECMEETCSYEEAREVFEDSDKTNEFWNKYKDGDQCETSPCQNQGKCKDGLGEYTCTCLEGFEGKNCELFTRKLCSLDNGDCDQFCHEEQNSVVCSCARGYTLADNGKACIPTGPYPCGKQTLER
Chain of Factor XIa (P03951 388-625): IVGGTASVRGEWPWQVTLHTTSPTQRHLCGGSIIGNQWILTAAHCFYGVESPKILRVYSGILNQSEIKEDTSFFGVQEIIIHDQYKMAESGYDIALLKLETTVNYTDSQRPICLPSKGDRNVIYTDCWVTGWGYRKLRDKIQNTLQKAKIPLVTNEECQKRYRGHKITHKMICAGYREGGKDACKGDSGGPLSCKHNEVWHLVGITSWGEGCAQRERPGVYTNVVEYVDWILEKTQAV
Chain of Factor XIa (P03951 19-387 partner): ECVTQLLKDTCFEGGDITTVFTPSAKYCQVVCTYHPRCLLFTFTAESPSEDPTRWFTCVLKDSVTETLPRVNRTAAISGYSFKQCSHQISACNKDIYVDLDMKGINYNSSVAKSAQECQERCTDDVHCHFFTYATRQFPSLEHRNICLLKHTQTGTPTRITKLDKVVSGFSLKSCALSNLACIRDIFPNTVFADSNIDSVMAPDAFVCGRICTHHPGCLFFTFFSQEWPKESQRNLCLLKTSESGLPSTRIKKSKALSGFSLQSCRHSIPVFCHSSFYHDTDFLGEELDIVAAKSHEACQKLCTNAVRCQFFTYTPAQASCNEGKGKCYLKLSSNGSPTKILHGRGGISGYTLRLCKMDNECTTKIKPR

| pIC50 [1] | Ratio: Thrombin/FXIa [2] | Ratio: FXa/FXIa [4] | half-life at 2 μM [5] | Papp A→B at 60 min, 10 μM ([6]; Caco-2, apical to basolateral, 60 min) | Papp B→A at 40 min, 10 μM ([6]; Caco-2, basolateral to apical, 40 min) | solubility at 24 h ([7]; phosphate buffered saline, aqueous buffer, kinetic from dmso stock) | fraction unbound at 4 h, 10 μM [8] | Caco-2 Permeability (A-B) ([9]; apical to basolateral, 60 min) | Caco-2 Permeability (B-A) ([9]; basolateral to apical, 40 min) | Aqueous Solubility (uM, in PBS) [7] | PPB (%) [10] | Compound | Ratio: Trypsin/FXIa [3] |
| --- | --- | --- | --- | --- | --- | --- | --- | --- | --- | --- | --- | --- | --- |
| > 8.00 | H (“H” indicates 101-1000) | I (“I” indicates > 500) | > 4 h | – | – | – | – | – | – | – | – | CC[C@@H](NC(=O)N1C(=O)[C@H](Cc2cc(C)nc(N)c2)[C@H]1C(=O)N(C)c1ccn(C)n1)c1ccccc1 [Compound 1-48, (2S,3R)-3-((2-amino-6-methylpyridin-4-yl)methyl)-N2-(1-methyl-1H-pyrazol-3-yl)-N1-((R)-1-phenylpropyl)-N2-methyl-4-oxoazetidine-1,2-dicarboxamide] | G (“G” indicates 1-100) |
| > 8.00 | H (“H” indicates 101-1000) | I (“I” indicates > 500) | – | < 10 ×10⁻⁶ cm/s | 11 to 30 ×10⁻⁶ cm/s | > 100 µM | 0.1 to 0.5 | – | – | – | – | CC[C@@H](NC(=O)N1C(=O)[C@H](Cc2ccnc(N)c2)[C@H]1C(=O)N(C)c1nccn1C)c1cc(F)ccc1F [Compound 1-84, (2S,3R)-3-((2-aminopyridin-4-yl)methyl)-N2-(1-methyl-1H-imidazol-2-yl)-N1-((R)-1-(2,5-difluorophenyl)propyl)-N2-methyl-4-oxoazetidine-1,2-dicarboxamide] | G (“G” indicates 1-100) |
| > 8.00 | H (“H” indicates 101-1000) | I (“I” indicates > 500) | – | – | – | – | – | P (“P” indicates < 10 × 10^−6 cm/s) | Q (“Q” indicates 11-30 × 10^−6 cm/s) | W (“W” indicates > 100 μM) | Z (“Z” indicates 50-90%) | (2S,3R)-3-((2-aminopyridin-4-yl)methyl)-N2-(1-methyl-1H-imidazol-2-yl)-N1-((R)-1-(3-fluorophenyl)propyl)-N2-methyl-4-oxoazetidine-1,2-dicarboxamide [Compound 1-79] | G (“G” indicates 1-100) |
